Test results from article PMC4301955 (ChemMedChem, 2012).
“And” between values parts separate entries of the source, which are not always exact repeats. Identical values can stand only once.

Columns and labels:
ERα+ MCF-7 cells = details: for Agonist mode MCF-7 (% E2): ERα+ MCF-7 cells with ERE reporter, average efficacy (mean ± s.e.m.) as percentage of 10^−5 M 17β-estradiol
full-length human ERβ [1] = molecular target: T1, full-length human ERβ (Homo sapiens, UniProt Q92731); type: cell-based
[2] = molecular target: T2, purified full-length human ERα (Homo sapiens, UniProt P03372); details: for Relative binding affinity (RBA) ERα: IC50 estradiol/IC50 compound ×100, estradiol = 100%, ± range or SD, n = 2–3, 10 nM [3H]estradiol, 18–24 h at 0 °C
T2 sequence (P03372 1-595): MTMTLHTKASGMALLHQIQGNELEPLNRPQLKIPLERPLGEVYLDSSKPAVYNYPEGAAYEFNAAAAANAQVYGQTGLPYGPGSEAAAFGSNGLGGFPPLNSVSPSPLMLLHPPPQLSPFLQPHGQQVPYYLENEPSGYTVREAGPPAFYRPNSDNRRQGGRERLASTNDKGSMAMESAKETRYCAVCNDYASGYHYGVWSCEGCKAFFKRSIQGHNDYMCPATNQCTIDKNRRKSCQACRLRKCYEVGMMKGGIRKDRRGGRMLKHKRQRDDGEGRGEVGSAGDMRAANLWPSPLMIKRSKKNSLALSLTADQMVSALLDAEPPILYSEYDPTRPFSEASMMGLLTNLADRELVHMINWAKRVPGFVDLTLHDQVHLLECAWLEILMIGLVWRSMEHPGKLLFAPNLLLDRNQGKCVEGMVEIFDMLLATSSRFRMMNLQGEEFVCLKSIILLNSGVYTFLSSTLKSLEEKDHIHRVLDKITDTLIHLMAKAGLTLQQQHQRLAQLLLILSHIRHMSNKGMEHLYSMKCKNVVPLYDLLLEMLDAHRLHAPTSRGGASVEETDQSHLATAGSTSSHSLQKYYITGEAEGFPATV

full-length human ERβ [3] = molecular target: T1, full-length human ERβ; type: cell-based; details: HepG2 cells; average efficacy (mean ± s.e.m.) as percentage of 10^−5 M 17β-estradiol
[4] = molecular target: purified full-length human ERβ (Homo sapiens, UniProt Q92731); details: IC50 estradiol/IC50 compound ×100, estradiol = 100%; ± range or SD, n = 2–3; 10 nM [3H]estradiol, 18–24 h at 0 °C
full-length human ERα = molecular target: T3, full-length human ERα (Homo sapiens, UniProt P03372); type: cell-based; details: for Agonist mode ERα (% E2): HepG2 cells, average efficacy (mean ± s.e.m.) as percentage of 10^−5 M 17β-estradiol
T3 sequence (P03372 1-595): T2 sequence (P03372 1-595)

purified full-length human ERβ, sequence (Q92731 whole entry): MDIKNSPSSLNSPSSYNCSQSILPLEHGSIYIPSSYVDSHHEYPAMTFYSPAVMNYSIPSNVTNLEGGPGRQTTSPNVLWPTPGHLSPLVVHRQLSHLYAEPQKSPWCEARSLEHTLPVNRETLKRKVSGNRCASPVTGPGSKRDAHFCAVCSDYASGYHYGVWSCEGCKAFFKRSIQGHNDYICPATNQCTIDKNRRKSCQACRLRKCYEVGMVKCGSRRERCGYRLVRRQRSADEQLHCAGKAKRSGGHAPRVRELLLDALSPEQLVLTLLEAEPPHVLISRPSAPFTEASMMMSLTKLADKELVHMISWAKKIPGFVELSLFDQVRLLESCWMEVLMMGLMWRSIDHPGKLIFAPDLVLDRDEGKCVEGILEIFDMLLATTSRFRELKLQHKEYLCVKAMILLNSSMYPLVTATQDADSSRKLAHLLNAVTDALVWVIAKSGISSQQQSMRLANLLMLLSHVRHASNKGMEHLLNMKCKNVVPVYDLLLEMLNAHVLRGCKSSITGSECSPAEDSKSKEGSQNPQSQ
T1 sequence (Q92731 whole entry): as above

Compound | Activity profile in MCF-7 cells (in words) (ERα+ MCF-7 cells; 3xERE-luciferase, ERα-positive MCF-7 cells) | Agonist mode MCF-7 (% E2) (ERα+ MCF-7 cells) | IC50 (full-length human ERβ [1]) [µM] | Relative binding affinity (RBA) ERα [2] | Agonist mode ERβ (% E2) (full-length human ERβ [3]) | Relative binding affinity (RBA) ERβ [4] | EC50 (full-length human ERα) [µM] | Agonist mode ERα (% E2) (full-length human ERα) | α/β ratio ([2]; ratio of the RBA for ERα to the RBA for ERβ) | Antagonist mode ERβ (% E2) (full-length human ERβ [1])
O=S(=O)(Oc1ccccc1)[C@H]1C[C@H]2O[C@@H]1C(c1ccc(O)cc1)=C2c1ccc(O)cc1 [Compound 1] | limited agonist activity | 21 ± 4 |  |  |  |  |  |  |  | 
O=S(=O)(Oc1ccccc1Cl)C1CC2OC1C(c1ccc(O)cc1)=C2c1ccc(O)cc1 (centres unmarked) [Compound 2b, 5,6-Bis-(4-hydroxyphenyl)-7-oxabicyclo[2.2.1]hept-5-ene-2-sulfonic Acid 2-Chlorophenyl Ester] |  | −7 ± 2 | > 10 | 19.0% and 19.00 ±4.6% | 1 ± 1 | 1.76% and 1.76 ±0.13% | > 10 | 29 ± 5 |  | 
O=S(=O)(Oc1cccc2ccccc12)C1CC2OC1C(c1ccc(O)cc1)=C2c1ccc(O)cc1 (centres unmarked) [Compound 2m] |  | −4 ± 1 |  | 5.03 ±1.5% | 1 ± 2 | 0.478 ±0.12% |  | 29 ± 1 | 10.52 | 
CC/C(=C(\c1ccc(O)cc1)c1ccc(OCCN(C)C)cc1)c1ccccc1 [Compound 4-OHT, 4-hydroxytamoxifen, reference compound] |  | −11 ± 1 |  |  | −1 ± 1 |  |  |  |  | −20 ± 2
C[C@]12CC[C@@H]3c4ccc(O)cc4C[C@@H](CCCCCCCCC[S+]([O-])CCCC(F)(F)C(F)(F)F)[C@H]3[C@@H]1CC[C@@H]2O (some centres unmarked) [Faslodex, reference compound] |  | −4 ± 4 |  |  |  |  |  | 1 ± 1 |  | 
